Values joined by “and” are separate entries in the source; they are usually repeats but may differ in a detail not shown here. Identical values can stand only once. Marks after values point to notes of the source that are not given here.
Key:
[1] = pulsating bubble technique ("bubble assay" of Enhorning, Enhorning Surfactometer); type: physicochemical; details: peptide 10% by weight of PL, 37° C., negative pressure, mean of 3; for Pressure Gradient 15″: 15 seconds; for Pressure Gradient 1′: 1 minute; for Pressure Gradient 5′: 5 minutes
Procedure: Measurements of surface pressure across an air-liquid interface (expressed in negative cm of H2O pressure) at minimal (γmin) bubble radius were determined at various times using the pulsating bubble technique described by Enhorning, J. Appl. Physiol. 43: 198-203 (1977).
Briefly, the Enhorning Surfactometer (Surfactometer International, Toronto, Ontario) measures the pressure gradient (ΔP) across a liquid-air interface of a bubble that pulsates at a rate of 20 cycles/min between a maximal (0.55 mm) and minimal (0.4 mm) radius. The bubble, formed in a 37° C., water-enclosed, 20-μl sample chamber, is monitored through a microscopic optic while the pressure changes are recorded on a strip chart recorder calibrated for 0 and −2 cm H2O.
Each of the surfactants identified in Table 5 was assayed for surfactant activity as evidenced by their ability to reduce surface tension in vitro using the “bubble assay” of Enhorning as described above.
After admixture with solvent, each peptide was admixed with phospholipids (PL), DPPC:PG, 3:1, in chloroform in a glass tube so that the amount of polypeptide added equaled one-tenth (10% by. weight) of the amount of PL added, to form a surfactant according to either method A, B or C.
Each of the surfactants was then assayed for surfactant activity as evidenced by their ability to reduce surface tension in vitro in the bubble assay performed as described above. The pressure gradient (ΔP) is a measure of surfactant activity in the polypeptide-PL third admixture which was determined using an Enhorning Surfactometer as described above. Measurements were obtained at time points of 15 seconds (15″), 1 minute (1′) and 5 minutes (5′) and are expressed as a mean of three independent measurements of the indicated polypeptide-PL admixture.

[2] = observation whether peptide/solvent admixture formed a solution or a suspension; type: physicochemical
Procedure: Each polypeptide was admixed with the indicated solvent at a concentration of 2.5 mg of polypeptide per ml of solvent. […] Those admixtures forming a suspension were further admixed by water bath sonication for 10 seconds to form a very fine suspension, sufficient for pipetting using glass pipettes.

fetal rabbit lung [3] = test: dynamic compliance, fetal rabbit model; type: in vivo; details: single animal per line
Procedure: A subject polypeptide was first admixed with solvent as described in Example 3. […]
Surfactant was instilled in rabbit fetal lung by injection into the trachea from a single syringe of the following three components such that the components exit the syringe in the following order: (1) 0.05 ml air; (2) 0.1 ml of a synthetic surfactant prepared in Example 4A or either 2 mg of PL or 2 mg of native surfactant; and (3) 0.1 ml air.
From one syringe, a 0.1 ml aliquot of synthetic surfactant prepared as described in Example 4A (or 2 mg of NS or of PL), was instilled into the rabbit trachea as described above, followed by injection of 0.05 ml lactated Ringer's Solution and 0.2 ml air from a second syringe.
From one syringe, 0.1 ml of a synthetic surfactant prepared as described in Example 4A (or 2 mg of NS or of PL), 0.15 ml air, 0.1 ml saline, and 0.3 ml air were injected into the trachea as described above. Two subsequent aliquots of 0.3 ml air were given.
The surfactant activity of exemplary polypeptides of this invention was studied using the methods described in detail previously by Revak, et al, Am. Rev. Respir. Dis. 134: […] (1986), with the exceptions noted hereinbelow.
Twenty-seven day gestation fetal rabbits were delivered by hysterotomy and immediately injected with 0.05 ml Norcuron (Organon, Inc., N.J.) to prevent spontaneous breathing. The fetal rabbits were then weighed and a small cannula was inserted into the trachea by tracheotomy surfactant prepared as described above was then instilled into the fetal rabbit lung by one of the above instillation protocols.
Following instillation the rabbit was placed in a specially designed plethysmograph (containing a Celesco transducer) connected to a ventilator (Baby Bird, Baby Bird Corp., Palm Springs, Calif.) and the instilled lung was ventilated at a rate of 30 cycles per minute with a peak inspiratory pressure of 25 cm H2O, a positive end expiratory pressure of 4 cm H2O and an inspiratory time of 0.5 seconds. In some studies, dynamic compliance measurements were made at various times throughout the ventilation procedure. In others, static compliance measurements were made following ventilation.
Using the plethysmograph, dynamic compliance measurements were made at various times throughout a 60 minute ventilation period. […] Compliance was calculated by the formula below. [formula]
The above equation was solved with a multiple linear regression for C and R. The compliance (C) represents the elastic nature of the lungs and the resistance (R) represents the pressure necessary to overcome the resistance to the flow of gas into and out of the lungs.

fetal rabbit lung [4] = test: static compliance, fetal rabbit model; type: in vivo; details: fetal rabbits, after 30 minutes of ventilation, instillation protocols 1 and 5 (FIGS. 2 and 3)
Procedure: A subject polypeptide was first admixed with solvent as described in Example 3. The resulting admixture was further admixed with phospholipid (PL) so that the amount of polypeptide added was either 3%, 7% or 10% by weight of the amount of PL added as indicated below.
Fetal rabbits were treated by injection into the trachea of a 0.1 ml solution that contained either a synthetic surfactant prepared in Example 4A or either 2 mg of native surfactant prepared as described in Example 1 of U.S. Pat. No. 5,260,273 (incorporated by reference herein) or 2 mg PL.
Fetal rabbits were treated by injection into the trachea from a single syringe the following four components such that the four components exit the syringe upon injection in the order listed: (1) 0.2 ml solution that contains either a synthetic surfactant prepared in Example 4A or either 4 mg of native surfactant, or 4 mg PL; (2) a 0.15 ml volume of air; (3) a 0.1 ml normal saline solution; and (4) a 0.3 ml volume of air. The above injection was then repeated 15 minutes after the first injection. […]
Static compliance measurements were made after 30 minutes of ventilation. […] The volume of air required to reach static pressures of 5, 10, 15, 20, 25 and 30 cm H2O was measured during both inflation and deflation phases to generate static pressure to volume curves as a measure of static compliance.

Sequence: ERYSVILLDTLLGRMLPQLVCRLVLRCSMD [p51-80]
- Pressure Gradient 15″ ([1]; PL (DPPC:PG 3:1) 10 mg/ml): 0.92 cm of H2O
- Pressure Gradient 1′ ([1]; PL (DPPC:PG 3:1) 10 mg/ml): 0.89 cm of H2O
- Pressure Gradient 5′ ([1]; PL (DPPC:PG 3:1) 10 mg/ml): 0.48 cm of H2O
- Admixture Formed ([2]; 2.5 mg of polypeptide per ml of solvent, solvent 45% chloroform 55% methanol): solution
- Dynamic Compliance, 10 minutes after surfactant instillation (fetal rabbit lung [3]; 10% peptide to PL, Protocol 4): 17 ml air/cm H2O (g body weight × 10^6) and 76 ml air/cm H2O (g body weight × 10^6) and 23 ml air/cm H2O (g body weight × 10^6)
- Dynamic Compliance, 20 minutes after surfactant instillation (fetal rabbit lung [3]; 10% peptide to PL, Protocol 4): 41 ml air/cm H2O (g body weight × 10^6) and 94 ml air/cm H2O (g body weight × 10^6) and 71 ml air/cm H2O (g body weight × 10^6)
- Dynamic Compliance, 30 minutes after surfactant instillation (fetal rabbit lung [3]; 10% peptide to PL, Protocol 4): 52 ml air/cm H2O (g body weight × 10^6) and 149 ml air/cm H2O (g body weight × 10^6) and 130 ml air/cm H2O (g body weight × 10^6)
- Dynamic Compliance, 40 minutes after surfactant instillation (fetal rabbit lung [3]; 10% peptide to PL, Protocol 4): 78 ml air/cm H2O (g body weight × 10^6) and 149 ml air/cm H2O (g body weight × 10^6) and 156 ml air/cm H2O (g body weight × 10^6)
- Dynamic Compliance, 50 minutes after surfactant instillation (fetal rabbit lung [3]; 10% peptide to PL, Protocol 4): 99 ml air/cm H2O (g body weight × 10^6) and 217 ml air/cm H2O (g body weight × 10^6) and 182 ml air/cm H2O (g body weight × 10^6)
- Dynamic Compliance, 60 minutes after surfactant instillation (fetal rabbit lung [3]; 10% peptide to PL, Protocol 4): 208 ml air/cm H2O (g body weight × 10^6) and 308 ml air/cm H2O (g body weight × 10^6) and 109* ml air/cm H2O (g body weight × 10^6)

Sequence: FPIPLPYCWLCRALI [p1-15]
- Pressure Gradient 15″ ([1]; PL (DPPC:PG 3:1) 4 mg/ml): 0.94 cm of H2O
- Pressure Gradient 1′ ([1]; PL (DPPC:PG 3:1) 4 mg/ml): 0.82 cm of H2O
- Pressure Gradient 5′ ([1]; PL (DPPC:PG 3:1) 4 mg/ml): 0.48 cm of H2O
- Admixture Formed ([2]; 2.5 μg of peptide per μl of solvent, solvent n-propyl alcohol): suspension
- Admixture Formed ([2]; 2.5 mg of polypeptide per ml of solvent, solvent N-propanol): suspension
- lung compliance measured by static compliance, compared with PL alone (fetal rabbit lung [4]): did not produce improved lung compliance over PL alone

Sequence: RVVPLVAGGICQCLAERYSVILLDTLLGRMLPQLVCRLVLRCSMDD [p36-81]
- Pressure Gradient 15″ ([1]; PL (DPPC:PG 3:1) 10 mg/ml): 0.90 cm of H2O
- Pressure Gradient 1′ ([1]; PL (DPPC:PG 3:1) 10 mg/ml): 0.87 cm of H2O
- Pressure Gradient 5′ ([1]; PL (DPPC:PG 3:1) 10 mg/ml): 0.79 cm of H2O
- Admixture Formed ([2]; 2.5 mg of polypeptide per ml of solvent, solvent 50% chloroform 0% methanol): suspension
- Dynamic Compliance, 30 minutes after surfactant instillation (fetal rabbit lung [3]; 5% peptide to PL, Protocol 3): 255 ml air/cm H2O (g body weight × 10^6) and 245 ml air/cm H2O (g body weight × 10^6)
- Dynamic Compliance, 60 minutes after surfactant instillation (fetal rabbit lung [3]; 5% peptide to PL, Protocol 3): 146* ml air/cm H2O (g body weight × 10^6) and 291 ml air/cm H2O (g body weight × 10^6)
- Dynamic Compliance, 30 minutes after surfactant instillation (fetal rabbit lung [3]; 10% peptide to PL, Protocol 2): 154 ml air/cm H2O (g body weight × 10^6) and 252 ml air/cm H2O (g body weight × 10^6)
- Dynamic Compliance, 60 minutes after surfactant instillation (fetal rabbit lung [3]; 10% peptide to PL, Protocol 2): 1,162 ml air/cm H2O (g body weight × 10^6) and 623 ml air/cm H2O (g body weight × 10^6)

Sequence: RYSVILLDTLLGRMLPQLVCRLVLRCSMDD [p52-81]
- Pressure Gradient 15″ ([1]; PL (DPPC:PG 3:1) 4 mg/ml): 1.33 cm of H2O
- Pressure Gradient 1′ ([1]; PL (DPPC:PG 3:1) 4 mg/ml): 1.19 cm of H2O
- Pressure Gradient 5′ ([1]; PL (DPPC:PG 3:1) 4 mg/ml): 0.96 cm of H2O
- Admixture Formed ([2]; 2.5 μg of peptide per μl of solvent, solvent methanol:H2O): suspension
- Admixture Formed ([2]; 2.5 mg of polypeptide per ml of solvent, solvent 67% DMF 33% chloroform): solution
- Dynamic Compliance, 30 minutes after surfactant instillation (fetal rabbit lung [3]; 5% peptide to PL, Protocol 3): 517 ml air/cm H2O (g body weight × 10^6) and 434 ml air/cm H2O (g body weight × 10^6)
- Dynamic Compliance, 60 minutes after surfactant instillation (fetal rabbit lung [3]; 5% peptide to PL, Protocol 3): 226* ml air/cm H2O (g body weight × 10^6) and 55* ml air/cm H2O (g body weight × 10^6)
- Dynamic Compliance, 30 minutes after surfactant instillation (fetal rabbit lung [3]; 10% peptide to PL, Protocol 2): 195 ml air/cm H2O (g body weight × 10^6) and 43 ml air/cm H2O (g body weight × 10^6)
- Dynamic Compliance, 60 minutes after surfactant instillation (fetal rabbit lung [3]; 10% peptide to PL, Protocol 2): 1,243 ml air/cm H2O (g body weight × 10^6) and 1,690 ml air/cm H2O (g body weight × 10^6)
